Reference: patent US6613322B2, “Method for treating a subject suffering from conditions associated with an extracellular zinc sphingomyelinase” (The Trustees of Columbia University in the City of New York, priority 1997, dated 2003)

Molecular target: T1, internalized S-SMase (Homo sapiens, UniProt P17405)
T1 construct: FLAG; purchased AMGEN, Boulder, Colo
T1 sequence (P17405 47-631): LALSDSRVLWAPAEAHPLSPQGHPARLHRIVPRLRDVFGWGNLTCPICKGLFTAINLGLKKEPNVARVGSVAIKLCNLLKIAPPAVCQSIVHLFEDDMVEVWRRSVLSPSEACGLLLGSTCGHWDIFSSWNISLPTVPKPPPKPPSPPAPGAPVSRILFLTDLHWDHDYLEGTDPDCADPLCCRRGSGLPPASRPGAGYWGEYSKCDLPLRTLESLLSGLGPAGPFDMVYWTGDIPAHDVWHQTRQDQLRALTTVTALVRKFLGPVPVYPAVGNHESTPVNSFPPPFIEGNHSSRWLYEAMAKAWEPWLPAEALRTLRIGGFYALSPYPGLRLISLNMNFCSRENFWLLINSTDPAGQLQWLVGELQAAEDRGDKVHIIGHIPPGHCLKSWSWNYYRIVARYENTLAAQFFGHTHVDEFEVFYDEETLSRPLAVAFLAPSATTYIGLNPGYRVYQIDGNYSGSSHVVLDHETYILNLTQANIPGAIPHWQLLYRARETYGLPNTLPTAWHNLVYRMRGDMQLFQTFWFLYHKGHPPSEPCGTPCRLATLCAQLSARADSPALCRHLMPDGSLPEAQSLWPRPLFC
Assay: SMase activity in homogenates of type A Niemann-Pick fibroblasts after internalization of FLAG-tagged S-SMase
Assay type: biochemical
Settings: 0.1 mM ZnCl2, sonicated cell homogenates
Description: FIG. 17. Zn^2+-dependency of S-SMase after internalization by type A Niemann-Pick cells. Skin fibroblasts from a patient with type A Niemann-Pick disease (NP-A Cells) were grown to 90% confluency in medium supplemented with 10% HI-FBS. The cells were then washed three times with PBS and incubated in serum-free media containing 0.2% BSA and 850 ng immunoaffinity-isolated FLAG-tagged S-SMase (Purified S-SMase)/ml at 37° C. for 16 h. The cell homogenate and incubation medium were then prepared as described in “Experimental Procedures”, and aliquots were assayed for SMase activity in the presence of either 5 mM EDTA (hatched bars) or 0.1 mM ZnCl2 (solid bars) for 2 h at 37° C. at pH 5.0. […]
SMase Assay—As previously described (Schissel et al., 1996), the standard 200-μl assay mixture consisted of up to 40 μl of sample (conditioned media or homogenized cells; see above) and a volume of assay buffer (0.1 M sodium acetate, pH 5.0) to bring the volume to 160 μl. […] The ceramide spots were scraped and directly counted to quantify [^3H]ceramide. Typically, the assay reactions contained approximately 20 μg of cellular homogenate protein and a volume of conditioned media derived from a quantity of cells equivalent to approximately 50 μg of cellular protein. […]

effect of added Zn2+ on cellular enzymatic activity: failed to increase
SMILES: [Cl-].[Cl-].[Zn+2] [Zn^2+, ZnCl2]
